# Measurements reported in patent publication US10330678B2, “Methods and systems for modulating hormones and related methods, agents and compositions” (California Institute of Technology, priority 2010, dated 2019).
# Structures can show the parent of a compound that is named as a salt. Where two headings read alike, the source gives them in different places.
# How the values were obtained:
# NCI-H716 cells = test: GLP-1 release from endocrine cell line NCI-H716 (GLP-1 RIA kit); format: cell-based
# Procedure: Endocrine cell lines of NCI-H716 cells were used for testing release of GLP-1 triggered by various possible ligands.
# NCI-H716 cells were incubated in serum-free DME/F12 media containing vehicle (0.01% DMSO) with a candidate ligand at the indicated concentrations. Secretion active GLP-1 in media was measured with GLP-1 RIA kit (Linco Research, Missouri, USA). The experiments for all groups have been conducted in duplicates.
# hTAS2R47 = biological target: T1, hTAS2R47 (Homo sapiens, UniProt P59541); details: observed by Pronin et al. [Pronin 2004]; cited from earlier work
# T1 sequence (P59541 1-319): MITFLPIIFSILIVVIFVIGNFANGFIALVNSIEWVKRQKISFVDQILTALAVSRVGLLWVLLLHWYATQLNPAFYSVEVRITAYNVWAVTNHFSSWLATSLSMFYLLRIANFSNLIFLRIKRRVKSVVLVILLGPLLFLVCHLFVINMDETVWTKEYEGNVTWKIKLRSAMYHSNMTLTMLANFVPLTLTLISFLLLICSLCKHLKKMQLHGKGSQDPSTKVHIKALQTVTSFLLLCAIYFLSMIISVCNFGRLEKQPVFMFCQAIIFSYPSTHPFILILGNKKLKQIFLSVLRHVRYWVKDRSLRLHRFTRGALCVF
# male Sprague-Dawley rats = test system: male Sprague-Dawley rats
# Procedure: The rats were then euthanized 45 min later and removed blood via intracardiac puncture and measured PYY in the blood by a recently modified radioimmunoassay using CURE antibody 9153 (Gift of J Reeve, University of California, Los Angeles.).
# STC-5 cells = details: 30 minutes incubation, PTC at various concentrations, versus vehicle (FIGS. 24A, 24B)
# Procedure: In GLP-1 release experiments, selected endocrine cell lines of STC-5 cells or NCI-H716 cells were used for testing release of GLP-1 triggered by various possible ligands. Endocrine cells were incubated in serum-free DME/F12 media containing vehicle (0.01% DMSO) and a candidate ligand of certain concentration and for a certain period of incubation time. After incubation, secretion active GLP-1 in media was measured with GLP-1 RIA kit (Linco Research®, Missouri, USA).
# Secretion of active GLP-1 in media was measured with GLP-1 RIA kit (Linco Research, Missouri, USA). The experiments for all groups have been conducted in duplicates.
# bitter taste = details: average; cited from earlier work
# [1] = NCI-H716 cells, ligand concentration 10 μm, duplicates, control 58.47
# [2] = summary of Table 2, versus control
SMILES,GLP-1 (pmol/mg protein) (NCI-H716 cells; [1]),effect on release of GLP-1 from NCI-H716 cells (in words) (NCI-H716 cells; [2]),further results
C=CCSC [Allyl methyl sulfide],91.547,increase the release of GLP-1,–
COc1ccc2cc3[n+](cc2c1OC)CCc1cc2c(cc1-3)OCO2 [Berberine chloride],86.41,increase the release of GLP-1,–
"CCCC(=O)O [Butyrate, reference compound]",–,–,"GLP-1 (pmol/mg protein) (NCI-H716 cells; NCI-H716 cells, ligand concentration 2.5 mM, duplicates, control 58.47): 100.77 pmol/mg protein"
"O=C1NS(=O)(=O)c2cccc([N+](=O)[O-])c21 [Compound 4NS, 4-Nitro saccharin]",–,–,activation of hTAS2R47 (in words) (hTAS2R47): very weak inverse agonist
"O=C1NS(=O)(=O)c2cc([N+](=O)[O-])ccc21 [Compound 6NS, 6-Nitro saccharin]",–,–,activation of hTAS2R47 (in words) (hTAS2R47): activated the receptor to a lesser extent
c1c2c(cc3c1OCO3)-c1cc3ccc4c(c3c[n+]1CC2)OCO4 [Coptisine chloride],121.35,increase the release of GLP-1,–
COc1cc(/C=C/C(=O)CC(=O)/C=C/c2ccc(O)c(OC)c2)ccc1O [Curcumin],61.52,–,–
CC[N+](CC)(CC(=O)Nc1c(C)cccc1C)Cc1ccccc1 [Denatonium],–,–,activation of hTAS2R47 (in words) (hTAS2R47): activated strongest
O=c1oc2c(O)c(O)cc3c(=O)oc4c(O)c(O)cc1c4c23 [Ellagic acid],77.25,increase the release of GLP-1,–
CCCCCCCCCCCC1=C(O)C(=O)C=C(O)C1=O [Embelin],83.55,–,–
O=C(O[C@@H]1Cc2c(O)cc(O)cc2O[C@@H]1c1cc(O)c(O)c(O)c1)c1cc(O)c(O)c(O)c1 [Epigallocatechin gallate],–,increase the release of GLP-1,"GLP-1 (pmol/mg protein) (NCI-H716 cells; NCI-H716 cells, ligand concentration 1 μm, duplicates, control 58.47): 91.15 pmol/mg protein"
CC1(C)[C@@H](O[C@H]2O[C@H](C(=O)O)[C@@H](O)[C@H](O)[C@H]2O[C@@H]2O[C@H](C(=O)O)[C@@H](O)[C@H](O)[C@H]2O)CC[C@]2(C)[C@H]3C(=O)C=C4[C@@H]5C[C@@](C)(C(=O)O)CC[C@]5(C)CC[C@@]4(C)[C@]3(C)CC[C@@H]12 [Glycyrrhizic acid ammonium salt],71.95,increase the release of GLP-1,–
CC(C)=CCC[C@]1(C)[C@@H](CC=C(C)C)C[C@@]2(CC=C(C)C)C(=O)[C@]1(C(=O)C(C)C)C(=O)C(CC=C(C)C)=C2O [Hyperforin],–,increase the release of GLP-1,"GLP-1 (pmol/mg protein) (NCI-H716 cells; NCI-H716 cells, ligand concentration 5 μg/ml, duplicates, control 58.47): 104.87 pmol/mg protein"
"NC(=S)Nc1ccccc1 [PTC, Phenylthiocarbamide]",–,–,"change of PYY levels versus saline gavaged rats (in words) (male Sprague-Dawley rats; 5 mM PTC in 5 ml saline by gastric gavage, 45 min): doubling; PYY in the blood (male Sprague-Dawley rats; 5 mM PTC in 5 ml saline by gastric gavage, 45 min later, n=5, saline rats 71+/−35 pM): 154 ± 44 pM; volume of fluid remaining in the stomachs (male Sprague-Dawley rats; at sacrifice 45 min after gavage of 5 ml, saline-treated rats less than 0.5 ml): 1 to 2 mL; effect on GLP-1 release from STC-5 cells (in words) (STC-5 cells): large effect; GLP-1 (pmol/mg protein) (NCI-H716 cells): 98.73 pmol/mg protein; effect on release of GLP-1 from NCI-H716 cells (in words) (NCI-H716 cells): increase the release of GLP-1"
CC(=O)c1c(O)c(C)c(O)c(Cc2c(O)c3c(c(C(=O)/C=C/c4ccccc4)c2O)OC(C)(C)C=C3)c1O [Rottlerin],–,increase the release of GLP-1,"GLP-1 (pmol/mg protein) (NCI-H716 cells; NCI-H716 cells, ligand concentration 0.05%, duplicates, control 58.47): 111.18 pmol/mg protein"
C=C[C@H]1C[N@@]2CC[C@H]1C[C@H]2[C@H](O)c1ccnc2ccc(OC)cc12 [quinine],–,–,threshold for stimulation of bitter taste (bitter taste): 8 µM
